Laboratory results as given in paper PMC5948155 (ACS infectious diseases, 2018).
“Also recorded” adds a separate entry of the source. Counter-ions that a name gives are not always drawn. Like-named read-outs stand apart in the source and are kept apart here.

Key:
Type in all cases: cell-based
[1] = biological target: T1, cholera toxin subunit B (CTB) (Vibrio cholerae serotype O1, UniProt P01556); test: cell-based
[2] = biological target: T1, cholera toxin subunit B (CTB)
[3] = biological target: T2, Aleuria aurantia lectin (AAL) (Aleuria aurantia, UniProt P18891)
T2 sequence (P18891 1-313): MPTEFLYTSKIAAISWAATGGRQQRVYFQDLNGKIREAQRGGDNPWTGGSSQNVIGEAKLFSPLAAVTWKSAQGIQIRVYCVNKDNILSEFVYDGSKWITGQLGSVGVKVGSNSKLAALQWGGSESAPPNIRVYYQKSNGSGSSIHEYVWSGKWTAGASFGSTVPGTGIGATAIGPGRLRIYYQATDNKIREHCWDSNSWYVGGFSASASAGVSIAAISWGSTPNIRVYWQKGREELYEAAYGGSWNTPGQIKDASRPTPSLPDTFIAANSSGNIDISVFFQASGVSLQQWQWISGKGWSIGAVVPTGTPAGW

[4] = biological target: T2, Aleuria aurantia lectin (AAL); remark: listed apart in the source
[5] = biological target: Sambucus nigra lectin (SNA) (Sambucus nigra, UniProt Q41358)
Chain of Sambucus nigra lectin (SNA) (Q41358 309-570 limits assumed): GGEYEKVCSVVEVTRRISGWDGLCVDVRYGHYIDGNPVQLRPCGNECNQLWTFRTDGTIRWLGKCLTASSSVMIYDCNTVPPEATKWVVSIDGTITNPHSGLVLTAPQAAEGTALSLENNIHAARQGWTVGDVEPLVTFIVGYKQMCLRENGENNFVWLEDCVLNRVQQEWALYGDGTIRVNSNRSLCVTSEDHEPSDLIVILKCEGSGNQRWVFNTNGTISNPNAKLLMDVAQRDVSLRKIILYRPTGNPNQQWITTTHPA
Chain of Sambucus nigra lectin (SNA) (Q41358 29-292 partner limits assumed): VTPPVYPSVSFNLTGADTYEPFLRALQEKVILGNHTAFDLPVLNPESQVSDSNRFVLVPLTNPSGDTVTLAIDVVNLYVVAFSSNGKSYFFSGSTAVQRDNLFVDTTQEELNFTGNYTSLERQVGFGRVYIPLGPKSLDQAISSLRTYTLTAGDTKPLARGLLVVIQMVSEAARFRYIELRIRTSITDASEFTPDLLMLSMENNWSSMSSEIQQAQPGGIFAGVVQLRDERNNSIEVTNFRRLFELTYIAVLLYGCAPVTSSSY

[6] = biological target: CTB (Vibrio cholerae serotype O1, UniProt P01556)
Chain of CTB (P01556 22-124 limits assumed): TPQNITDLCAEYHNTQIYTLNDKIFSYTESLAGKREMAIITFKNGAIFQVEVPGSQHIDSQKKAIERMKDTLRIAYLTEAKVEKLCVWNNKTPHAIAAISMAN

[7] = biological target: T1, cholera toxin subunit B (CTB); remark: listed apart in the source
[8] = biological target: T3, Maackia amurensis lectin I (MAL I) (Maackia amurensis, UniProt P0DKL3)
T3 sequence (P0DKL3 30-287): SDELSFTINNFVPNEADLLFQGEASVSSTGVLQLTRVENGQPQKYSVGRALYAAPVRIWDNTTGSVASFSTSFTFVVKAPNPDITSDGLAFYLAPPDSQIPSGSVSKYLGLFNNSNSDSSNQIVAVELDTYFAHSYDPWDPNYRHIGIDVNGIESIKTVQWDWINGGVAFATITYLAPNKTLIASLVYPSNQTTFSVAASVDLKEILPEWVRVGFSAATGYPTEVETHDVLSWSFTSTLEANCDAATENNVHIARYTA

T1 sequence (P01556 22-124 limits assumed): as the sequence (P01556 22-124 limits assumed) above

| Compound | Inhibition of CTB binding to Colo205 cells (in words) [1] | Inhibition of CTB binding to T84 cells (in words) [2] | Inhibition of AAL binding to Colo205 cells (in words) [3] | further results |
| --- | --- | --- | --- | --- |
| C[C@H](O)[C@@H](O)[C@@H](O)[C@H](F)C=O [2-deoxy-2-fluoro-L-fucose, 2-Deoxy-2-fluoro-L-fucose] | indistinguishable | indistinguishable |  |  |
| C[C@@H]1OC(O)[C@@H](O)C[C@@H]1O (stereo partly drawn) [L-colitose] |  | significant loss in inhibitory potential |  |  |
| Asialo-GM1-tetrasaccharide [GA1(os)] | significantly attenuated |  |  | Inhibition of CTB binding to T84 cells, titration of inhibitor (in words) [2]: no inhibition |
| C[C@H](O)[C@@H](O)[C@@H](O)[C@H](O)C=O [L-fucose, l-(−)-Fucose] |  | dramatically suppress; also recorded: suppression of CTB binding was observed | effectively block | CTB binding, % of the no sugar control [1]: ~ 20%; IC50 [1]: 14.5 mM; Inhibition of AAL binding to T84 cells (in words) [4]: effectively block |
| OC[C@H]1O[C@@H](O[C@H]2[C@H](O)[C@@H](O)[C@H](O)O[C@@H]2CO)[C@H](O)[C@@H](O)[C@H]1O [lactose, d-Lactose monohydrate] |  | did not inhibit |  | inhibition at 100000 µM ([1]; COLO 205, read-out: Inhibition of CTB binding): ~50% |
| O=C[C@@H](O)[C@H](O)[C@H](O)[C@@H](O)CO [L-galactose, L-Galactose] | modest loss in inhibition | modest loss in inhibition | effective inhibitors | Inhibition of AAL binding to T84 cells (in words) [4]: effective inhibitors |
| C[C@@H]1O[C@@H](O[C@H]2[C@H](O[C@H]3[C@H](O[C@@H]4O[C@@H](C)[C@@H](O)[C@@H](O)[C@@H]4O)[C@@H](O)C(O)O[C@@H]3CO)O[C@H](CO)[C@H](O)[C@@H]2O)[C@@H](O)[C@H](O)[C@@H]1O (stereo partly shown) [DF-L, Difucosyllactose] |  |  | more efficient | Reduction of CTB binding compared to the no sugar control [1]: at least 75% |
| CC(=O)N[C@H]1[C@H]([C@H](O)[C@H](O)CO)O[C@@](OC[C@H]2O[C@@H](O[C@H]3[C@H](O)[C@@H](O)[C@H](O)O[C@@H]3CO)[C@H](O)[C@@H](O)[C@H]2O)(C(=O)O)C[C@@H]1O [6′-SL, 6′-Sialyllactose sodium salt] | no inhibition | no inhibition |  | Inhibition of SNA binding (in words) [5]: enhance the inhibitory potential of lactose |
| COC1OC(C)C(O)C(O)C1O [methyl β-L-fucose, Methyl b-L-fucopyranoside] | significantly less | inhibitory activity was not observed |  |  |
| CC(=O)NC1C(O)CC(OC2C(O)C(OC3C(CO)OC(O)C(O)C3O)OC(CO)C2OC2OC(CO)C(O)C(OC3OC(CO)C(O)C(O)C3O)C2NC(C)=O)(C(=O)O)OC1C(O)C(O)CO (stereo not shown) [GM1a(os), GM1a ganglioside sugar] |  |  |  | CTB binding, % of the no sugar control [1]: ~ 5%; Fold more potent than LeY in inhibiting CTB binding [1]: approximately 2000 fold; IC50 ([1]; read-out: IC50 against CTB binding): 0.000109 ± 3.8e-05 mM; Inhibition of CTB binding to T84 cells, titration of inhibitor (in words) [2]: could not completely inhibit CTB binding |
| CC1OC(OC2C(OC3C(CO)OC(O)C(O)C3O)OC(CO)C(O)C2O)C(O)C(O)C1O (stereo not shown) [2′-FL, 2′-Fucosyllactose] | more potent inhibitor than L-fucose alone | more potent inhibitor | inhibit binding | IC50 [1]: 3 mM; Reduction of CTB binding compared to the no sugar control [1]: at least 75%; Reduction of IC50 relative to L-fucose [1]: ~ 5 fold |
| C[C@@H](O)[C@@H](O)[C@H](O)[C@@H](O)C=O [6-deoxy-D-glucose] | only minor effects | no effect | virtually no effect | Inhibition of AAL binding to T84 cells (in words) [4]: virtually no effect |
| O=C[C@@H](O)[C@H](O)[C@@H](O)[C@@H](O)CO [L-glucose] |  |  |  | Inhibition of CTB binding (in words) [6]: loss of all inhibitory activity |
| CC(=O)NC1C(O)OC(CO)C(OC2OC(CO)C(O)C(OC3OC(CO)C(O)C(O)C3O)C2OC2OC(C)C(O)C(O)C2O)C1OC1OC(C)C(O)C(O)C1O (stereo not shown) [BLeY] | failed to produce a further increase in potency; also recorded: comparable blocking activity as LeY |  |  |  |
| CC(=O)N[C@H]1[C@@H](O[C@H]2[C@@H](O)[C@@H](CO)O[C@@H](O[C@H]3[C@H](O[C@@H]4O[C@@H](C)[C@@H](O)[C@@H](O)[C@@H]4O)[C@@H](NC(C)=O)C(O)O[C@@H]3CO)[C@@H]2O[C@@H]2O[C@@H](C)[C@@H](O)[C@@H](O)[C@@H]2O)O[C@H](CO)[C@H](O)[C@@H]1O (stereo partly shown) [ALeY] | failed to produce a further increase in potency; also recorded: less effectively than LeY |  |  |  |
| C[C@H]1OC(O)[C@H](O)[C@@H](O)[C@H]1O (stereo partly drawn) [D-fucose, d-(+)-Fucose] | only minor effects | only a modest effect | virtually no effect | Inhibition of AAL binding to T84 cells (in words) [4]: virtually no effect |
| C[C@H](O)C[C@@H](O)[C@H](O)C=O [4-deoxy-fucose, 4-Deoxy-L-fucose] | complete loss in inhibitory potential | complete loss in inhibitory potential |  |  |
| CC(=O)N[C@H]1[C@H]([C@H](O)[C@H](O)CO)O[C@@](O[C@H]2[C@@H](O)[C@@H](CO)O[C@@H](O[C@H]3[C@H](O)[C@@H](NC(C)=O)C(O)O[C@@H]3CO)[C@@H]2O)(C(=O)O)C[C@@H]1O (stereo partly shown) [3′-SLN, 3′-Sialyl-N-acetyllactosamine] | incapable of inhibiting |  |  |  |
| CC(=O)N[C@H]1C(O)O[C@H](CO)[C@@H](O[C@@H]2O[C@H](CO)[C@H](O)[C@H](O)[C@H]2O[C@@H]2O[C@@H](C)[C@@H](O)[C@@H](O)[C@@H]2O)[C@@H]1O[C@@H]1O[C@@H](C)[C@@H](O)[C@@H](O)[C@@H]1O (mixture of isomers) [LeY, Fucα2Galβ4[Fucα3]GlcNAc] | most potent blocker |  | more efficient; also recorded: capable of inhibiting | Inhibition of CTB binding to primary human jejunal epithelial cells (in words) [7]: effectively block; AAL lectin retained bound to the cell surface [3]: ~ 15%; CTB binding, % of the no sugar control [1]: ~ 20%; Inhibition of CTB binding to T84 cells, titration of inhibitor (in words) [2]: near complete inhibition |
| CC(=O)N[C@H]1[C@H]([C@H](O)[C@H](O)CO)O[C@@](O[C@H]2[C@@H](O)[C@@H](CO)O[C@@H](O[C@@H]([C@H](O[C@@H]3O[C@@H](C)[C@@H](O)[C@@H](O)[C@@H]3O)[C@H](C=O)NC(C)=O)[C@H](O)CO)[C@@H]2O)(C(=O)O)C[C@@H]1O [sLeX, 3′-Sialyl Lewis X] |  |  |  | AAL lectin retained bound to the cell surface [3]: ~ 70%; Inhibitory potential, fold less than that of LeY [1]: 2 fold; Inhibition of CTB binding to T84 cells, titration of inhibitor (in words) [2]: near complete inhibition |
| OC1OC[C@@H](O)[C@@H](O)[C@@H]1O (stereo partly drawn) [D-arabinose, d-(−)-Arabinose] | indistinguishably from the no sugar control | indistinguishably from the no sugar control | effective inhibitors | Inhibition of AAL binding to T84 cells (in words) [4]: effective inhibitors |
| CC(=O)N[C@H]1[C@H]([C@H](O)[C@H](O)CO)O[C@@](O[C@H]2[C@@H](O)[C@@H](CO)O[C@@H](O[C@H]3[C@H](O)[C@@H](O)C(O)O[C@@H]3CO)[C@@H]2O)(C(=O)O)C[C@@H]1O (stereo partly shown) [3′-SL, 3′-Sialyllactose sodium salt] | no inhibition | no inhibition |  | Inhibition of MAL I binding (in words) [8]: enhance the inhibitory potential of lactose |
| CO[C@@H]1O[C@@H](C)[C@@H](O)[C@@H](O)[C@@H]1O [methyl α-L-fucose, Methyl a-L-fucopyranoside] | inhibited CTB binding as efficiently as L-fucose | suppression of CTB binding was observed |  |  |
| CC(=O)N[C@H]1C(O)O[C@H](CO)[C@@H](O[C@@H]2O[C@H](CO)[C@H](O)[C@H](O)[C@H]2O)[C@@H]1O (stereo partly drawn) [LacNAc, N-Acetyl-D-lactosamine] |  |  |  | Inhibition of CTB binding to primary human jejunal epithelial cells (in words) [7]: no inhibition |
| CC(=O)N[C@H]1C(O)O[C@H](CO)[C@@H](O[C@@H]2O[C@H](CO)[C@H](O)[C@H](O)[C@H]2O[C@@H]2O[C@@H](C)[C@@H](O)[C@@H](O)[C@@H]2O)[C@@H]1O (stereo partly shown) [H antigen, Blood group H antigen triaose type 2] |  |  |  | Reduction of CTB binding compared to the no sugar control [1]: at least 75% |
